pIC50: −log10 of the molar value. Read-outs that look alike come from different tables or passages of the source. No end group written: not given here.

The test system of data set [1] is Staphylococcus aureus (ATCC 6538P). The following applies: for IC50: read-out: IC50 Concentration (μM) S. aureus, turbidity (A620) of serial dilutions in LB broth, ~1 × 10^5 CFU, overnight 37C, averages for several experiments.
Protocol: (§1) A microdilution method was used [8]: paired dilutions of compounds in LB broth, arranged in 96-well plates were inoculated with around 1 × 10^5 CFU Pseudomonas aeruginosa (ATCC 9027) or Staphylococcus aureus (ATCC 6538P). After overnight incubation at 37C, absorbance at 620 nm (A620) was assessed, and the IC50 concentrations determined.
In data set [2] the test system is Pseudomonas aeruginosa (ATCC 9027). The following applies: for IC50: read-out: IC50 Concentration (μM) P. aeruginosa, turbidity (A620) of serial dilutions in LB broth, ~1 × 10^5 CFU, overnight 37C, averages for several experiments.
Protocol: as §1
Data set [3] concerns HSV1. Particulars: for IC50: read-out: IC50 Concentration (μM) HSV1, Vero cells, 90 PFU/well, peptide present 1 h, plaques counted after 2 d, averages for several experiments.
Data set [4] relates to human red blood cells. Also noted: method as in PMID 17681018. The following applies: cited from earlier work.
For data set [5], the system named is human red blood cells. It is filed as cell-based. The procedure:
Freshly washed human red blood cells were added to peptides diluted in PBS in 96-well plates (20 × 10^6 red blood cells were added per well). After 2 h incubation at 37°C, plates were centrifuged (3000 g, 5 min) and 80 μl of supernatant transferred to further 96-well plates containing 0.75% ammonium hydroxide in distilled water.

Another data set concerns TZMbl cells. The data set is classed as cell-based. The procedure: Cytotoxicity assessment - Vero cells growing in 96-well plates were treated with various peptide concentrations. After 48 h incubation, 25 μl 3-(4,5-dimethylthiazol-2-yl)-2,5-diphenyltetrazolium bromide (MTT) in 0.5% medium was added (1 mg/ml final concentration), and cells incubated for 2 h. Growth medium was then carefully removed and formazan crystals solubilised in […] of DMSO, prior to reading absorbance at 570 nm (A570). TZMbl cytotoxicity was assessed using the WST-1 cell proliferation reagent (Roche). Experiments were performed as for the anti-infectivity assay, WST-1 was diluted 1/10 into each well at various time points and cell proliferation was measured by absorbance at 450 nm.

Data set [6] concerns HSV1. The following applies: earlier reports, organism not specified at this place; ref [9]; cited from earlier work. The source says: In the second group of peptides, apoEdp - used as a positive control - was active against all three organisms, as found in our previous studies.

Regarding ARLAEYHAKATEHLSTLSEKAK [apoA1-H8], the IC50 in data set [1] is greater than 54 µM; in data set [2] it was greater than 54 µM; in the data set on HSV1 [3] (plaque reduction assay) it was greater than 40 µM.

With CKNKEKKCCKNKEKKC [apoH(281-288)dp], the IC50 was greater than 54 µM in data set [1], greater than 54 µM in data set [2] and greater than 40 µM in the data set with HSV1 [3] (plaque reduction assay).

As for “DWLKAFYDKVAEKLKEAF [apoA1-18A, reference compound]”, the pIC50 with HSV1 [3] (read-out: IC50 concentration against HSV1, plaque reduction assay, 95%CI 31.9 - 41.1 μM) is 4.44.

In the case of GERLRARMEGERLRARME [apoE(211-219)dp], the IC50 in data set [1] and in data set [2] was greater than 54 µM each time. Also, the pIC50 in the data set on HSV1 [3] (1 h) is less than 4.40.

As to HMLDVMQDHFSRASSIIDEL [apoJ151-170], the IC50 in data set [1] and in data set [2] was greater than 54 µM in each case. In the data set with HSV1 [3] (1 h), this substance showed a pIC50 of less than 4.40.

Take KFMETVAEKALQEYRK [apoJ409-424]: the IC50 in data set [1] is greater than 54 µM; in data set [2] it was greater than 54 µM; in the data set with HSV1 [3] (plaque reduction assay), greater than 40 µM.

In the case of LQVAERLTRKYNELLKSYQ [apoJ311-329], the results for the IC50 (in data set [1]; in data set [2]; in the data set on HSV1 [3] (plaque reduction assay)) were greater than 54 µM, greater than 54 µM and greater than 40 µM, respectively.

As to “LRKLRKRLLLRKLRKRLL-NH2 [apoE(141-149)dp, reference compound]”, the pIC50 is 5.05 in data set [1] (ATCC 6538), 5.60 in data set [2] (ATCC 9027) and 4.78 with HSV1 [3] (1 h). Further, in the data set with human red blood cells [4], the haemolytic activity result was “non-haemolytic”.

As for LRKLRKRLLRDADDLQKRLA [apoE141-162], the IC50 in data set [1] and in data set [2] was greater than 54 µM in each case. This substance showed a pIC50 with HSV1 [3] (1 h) of less than 4.40.

As for NFHAMFQPFLEMIHEAQQ [apoJ219-236], the IC50 in data set [1] is greater than 54 µM; in data set [2] it was greater than 54 µM; in the data set on HSV1 [3] (plaque reduction assay), greater than 40 µM.

For PLGEEMRDRARAHVDALRTHLA [apoA1-H6], the values for the IC50 (in data set [1]; in data set [2]; in the data set with HSV1 [3] (plaque reduction assay)) were greater than 54 µM, greater than 54 µM and greater than 40 µM, respectively.

Consider “PVLDEFREKLNEELEALKQKMK [apoA1-consensus]”, for which the figures for the IC50 (in data set [1]; in data set [2]; in the data set with HSV1 [3] (plaque reduction assay)) were greater than 54 µM, greater than 54 µM and greater than 40 µM, respectively.

Take PYLDDFQKKWQEEMELYRQKVE [apoA1-H4]: the IC50 in data set [1] was greater than 54 µM; in data set [2], greater than 54 µM; with HSV1 [3] (plaque reduction assay), greater than 40 µM.

On to PYSDELRQRLAARLEALKENGG [apoA1-H7], for which the IC50 in data set [1] was greater than 54 µM; in data set [2], greater than 54 µM; with HSV1 [3] (plaque reduction assay), greater than 40 µM.

As to RALVDTLKFVTQAEGAK [apoB1000-1016], the IC50 is greater than 54 µM in data set [1], greater than 54 µM in data set [2] and greater than 40 µM in the data set with HSV1 [3] (plaque reduction assay). Also, the “antiviral activity against HSV1 (in words)” value in the data set on HSV1 [3] (plaque reduction assay in Vero cells) is “inactive”.

In the case of RDADDLQKRRDADDLQKR [apoE(150-158)dp], the IC50 in data set [1] and in data set [2] was greater than 54 µM in each case. The pIC50 with HSV1 [3] (1 h) was less than 4.40.

As for RLRARMEEMRLRARMEEM [apoE(213-221)dp], the IC50 in data set [1] and in data set [2] was greater than 54 µM in each case. Besides, the pIC50 with HSV1 [3] (1 h) was less than 4.40.

As to RLTRKRGLKRLTRKRGLK [apoB(3359-3367)dp], the IC50 in data set [1] and in data set [2] was greater than 54 µM each time. This substance also showed a pIC50 with HSV1 [3] (1 h) of less than 4.40.

On to VTDYGKDLMEKVKEWLNS [apoAII 18-30+], for which the IC50 in data set [1] is greater than 54 µM; in data set [2], greater than 54 µM; in the data set with HSV1 [3] (plaque reduction assay), greater than 40 µM.

With VTDYGKDLMEKVKSPELQ [apoAII 18-35], the IC50 was greater than 54 µM in data set [1], greater than 54 µM in data set [2] and greater than 40 µM with HSV1 [3] (plaque reduction assay).

With WRWRKRWRKWRWRKRWRK [apoBdpL/R-W], the haemolytic activity entry in the data set on human red blood cells [5] is recorded as “non-haemolytic”. In addition, the “toxicity against TZMbl cells” value in the data set on TZMbl cells was “no detectable toxicity”.

Take “apoE(141-149): nonomer peptide of the apoE receptor binding region (LRKLRKRLL; UniProt P02649 159-167, looked up, fragment)”: the “anti-infective activity (in words)” value in the data set on HSV1 [6] is “inactive”.

The record behind these values is publication PMC2855520, “Anti-infective activity of apolipoprotein domain derived peptides in vitro: identification of novel antimicrobial peptides related to apolipoprotein B with anti-HIV activity” (BMC Immunology, 2010).
